# Measurements from the NIST ThermoML archive (doi:10.1016/j.jct.2018.12.018).
# “And” between values parts separate entries of the source, which are not always exact repeats. Identical values can stand only once. ± gives the expanded uncertainty stated by the source.
# Settings: Liquid; for speed of sound: Frequency=3 MHz, Single path-length method; for mass density: Vibrating tube method
structure (smiles),measurement,setting,value
CC(C)O [propan-2-ol],speed of sound,"293.15 K, 100 kPa",1157.5 ± 1 m/s
same,mass density,"293.15 K, 100 kPa",785.4 ± 0.7 kg/m3 and 785.46 ± 0.91 kg/m3
same,mass density,"293.15 K, 1000 kPa",786.2 ± 0.7 kg/m3
same,mass density,"293.15 K, 5000 kPa",789.6 ± 0.7 kg/m3
same,mass density,"293.15 K, 10000 kPa",793.6 ± 0.7 kg/m3
same,mass density,"293.15 K, 15000 kPa",797.4 ± 0.7 kg/m3
same,mass density,"293.15 K, 20000 kPa",801.1 ± 0.7 kg/m3
same,mass density,"293.15 K, 25000 kPa",804.5 ± 0.8 kg/m3
same,mass density,"293.15 K, 30000 kPa",807.9 ± 0.8 kg/m3
same,mass density,"293.15 K, 35000 kPa",811.2 ± 0.8 kg/m3
same,mass density,"293.15 K, 40000 kPa",814.2 ± 0.8 kg/m3
same,mass density,"293.15 K, 45000 kPa",817.2 ± 0.8 kg/m3
same,mass density,"293.15 K, 50000 kPa",820.1 ± 0.8 kg/m3
same,mass density,"293.15 K, 55000 kPa",822.9 ± 0.8 kg/m3
same,mass density,"293.15 K, 60000 kPa",825.6 ± 0.8 kg/m3
same,mass density,"293.15 K, 65000 kPa",828.2 ± 0.9 kg/m3
same,mass density,"293.15 K, 70000 kPa",830.8 ± 0.9 kg/m3
same,mass density,"293.15 K, 80000 kPa",835.8 ± 0.9 kg/m3
same,mass density,"293.15 K, 90000 kPa",840.5 ± 0.9 kg/m3
same,mass density,"293.15 K, 100000 kPa",845 ± 0.9 kg/m3
same,mass density,"293.15 K, 110000 kPa",849.4 ± 1 kg/m3
same,mass density,"293.15 K, 120000 kPa",853.5 ± 1 kg/m3
same,mass density,"293.15 K, 130000 kPa",857.6 ± 1 kg/m3
same,mass density,"293.15 K, 140000 kPa",861.2 ± 1 kg/m3
same,speed of sound,"298.15 K, 100 kPa",1139.7 ± 1 m/s
same,mass density,"298.15 K, 100 kPa",781.27 ± 0.91 kg/m3 and 781.4 ± 0.7 kg/m3
same,mass density,"298.15 K, 1000 kPa",782.1 ± 0.7 kg/m3
same,mass density,"298.15 K, 5000 kPa",785.6 ± 0.7 kg/m3
same,mass density,"298.15 K, 10000 kPa",789.8 ± 0.7 kg/m3
same,mass density,"298.15 K, 15000 kPa",793.7 ± 0.7 kg/m3
same,mass density,"298.15 K, 20000 kPa",797.3 ± 0.7 kg/m3
same,mass density,"298.15 K, 25000 kPa",800.9 ± 0.8 kg/m3
same,mass density,"298.15 K, 30000 kPa",804.3 ± 0.8 kg/m3
same,mass density,"298.15 K, 35000 kPa",807.7 ± 0.8 kg/m3
same,mass density,"298.15 K, 40000 kPa",810.8 ± 0.8 kg/m3
same,mass density,"298.15 K, 45000 kPa",813.8 ± 0.8 kg/m3
same,mass density,"298.15 K, 50000 kPa",816.7 ± 0.8 kg/m3
same,mass density,"298.15 K, 55000 kPa",819.7 ± 0.8 kg/m3
same,mass density,"298.15 K, 60000 kPa",822.5 ± 0.8 kg/m3
same,mass density,"298.15 K, 65000 kPa",825.2 ± 0.9 kg/m3
same,mass density,"298.15 K, 70000 kPa",827.6 ± 0.9 kg/m3
same,mass density,"298.15 K, 80000 kPa",832.8 ± 0.9 kg/m3
same,mass density,"298.15 K, 90000 kPa",837.5 ± 0.9 kg/m3
same,mass density,"298.15 K, 100000 kPa",842.3 ± 1 kg/m3
same,mass density,"298.15 K, 110000 kPa",846.4 ± 1 kg/m3
same,mass density,"298.15 K, 120000 kPa",850.8 ± 1 kg/m3
same,mass density,"298.15 K, 130000 kPa",854.8 ± 1 kg/m3
same,mass density,"298.15 K, 140000 kPa",858.7 ± 1.1 kg/m3
same,speed of sound,"303.15 K, 100 kPa",1122.6 ± 1 m/s
same,mass density,"303.15 K, 100 kPa",777 ± 0.91 kg/m3
same,speed of sound,"313.15 K, 100 kPa",1087.2 ± 1 m/s
same,mass density,"313.15 K, 100 kPa",768.21 ± 0.91 kg/m3 and 768.2 ± 0.7 kg/m3
same,mass density,"313.15 K, 1000 kPa",769.1 ± 0.7 kg/m3
same,mass density,"313.15 K, 5000 kPa",773 ± 0.7 kg/m3
same,mass density,"313.15 K, 10000 kPa",777.4 ± 0.7 kg/m3
same,mass density,"313.15 K, 15000 kPa",781.8 ± 0.7 kg/m3
same,mass density,"313.15 K, 20000 kPa",785.7 ± 0.7 kg/m3
same,mass density,"313.15 K, 25000 kPa",789.5 ± 0.8 kg/m3
same,mass density,"313.15 K, 30000 kPa",793.3 ± 0.8 kg/m3
same,mass density,"313.15 K, 35000 kPa",796.9 ± 0.8 kg/m3
same,mass density,"313.15 K, 40000 kPa",800.1 ± 0.8 kg/m3
same,mass density,"313.15 K, 45000 kPa",803.4 ± 0.8 kg/m3
same,mass density,"313.15 K, 50000 kPa",806.5 ± 0.8 kg/m3
same,mass density,"313.15 K, 55000 kPa",809.6 ± 0.8 kg/m3
same,mass density,"313.15 K, 60000 kPa",812.5 ± 0.9 kg/m3
same,mass density,"313.15 K, 65000 kPa",815.4 ± 0.9 kg/m3
same,mass density,"313.15 K, 70000 kPa",818.2 ± 0.9 kg/m3
same,mass density,"313.15 K, 80000 kPa",823.4 ± 0.9 kg/m3
same,mass density,"313.15 K, 90000 kPa",828.5 ± 1 kg/m3
same,mass density,"313.15 K, 100000 kPa",833.1 ± 1 kg/m3
same,mass density,"313.15 K, 110000 kPa",837.8 ± 1 kg/m3
same,mass density,"313.15 K, 120000 kPa",842.1 ± 1 kg/m3
same,mass density,"313.15 K, 130000 kPa",846.4 ± 1.1 kg/m3
same,mass density,"313.15 K, 140000 kPa",850.4 ± 1.1 kg/m3
same,speed of sound,"323.15 K, 100 kPa",1051.8 ± 1 m/s
same,mass density,"323.15 K, 100 kPa",759.07 ± 0.91 kg/m3
same,speed of sound,"333.15 K, 100 kPa",1015.3 ± 1 m/s
same,mass density,"333.15 K, 100 kPa",749.42 ± 0.91 kg/m3 and 749.4 ± 0.7 kg/m3
same,mass density,"333.15 K, 1000 kPa",750.5 ± 0.7 kg/m3
same,mass density,"333.15 K, 5000 kPa",754.9 ± 0.7 kg/m3
same,mass density,"333.15 K, 10000 kPa",760 ± 0.7 kg/m3
same,mass density,"333.15 K, 15000 kPa",764.9 ± 0.7 kg/m3
same,mass density,"333.15 K, 20000 kPa",769.3 ± 0.8 kg/m3
